Measurements published in patent publication US4070458A, “Novel physiologically active peptide and its n-acyl derivatives and processes for producing thereof” (priority 1974, dated 1978).
Values after ≈ are worked out from the molar mass of the structure shown. Read-outs that look alike come from different tables or passages of the source.

How the values were obtained:
[1] = test system: enzyme which decomposes R-Val-Val-X-Ala-X to Val-X-Ala-X; assay: Effect of various inhibitors and metal ions on the enzyme activity; assay type: biochemical, Bacillus sphaericus ATCC 14577
pepsin (SIGMA, 2XCRY) = biological target: T1, pepsin (SIGMA, 2XCRY) (Sus scrofa, UniProt P00791); assay: Assay of pepsin-inhibitory activity (casein digestion); assay type: biochemical
T1 construct: purchased SIGMA 2XCRY
Procedure: Assay of pepsin-inhibitory activity in this invention was performed according to the following method: A mixture of 1 ml of 0.6 %, by weight, highly purified casein dissolved in 0.08M lactate buffer solution, pH 2.2, 0.7 ml of 0.02M KCl-HCl buffer solution, pH 2.0, and 0.2 ml of solution containing the compound sample was incubated at 37° C for three minutes. To this mixture 4 mcg of pepsin (SIGMA, 2XCRY) dissolved in 0.1 ml of 0.2M KCl-HCl buffer solution were added. The mixture was incubated at 37° C for 30 minutes. The reaction was stopped by the addition of 2.0 ml of 1.7M perchloric acid. After one hour at room temperature, the optical density (a) of the supernatant liquid was read at 280 mμ. An inhibition rate was obtained according to:
where (b) is the optical density at 280 mμ of the tube without the sample solution.
The ID50 is defined as the amount necessary for 50 % of the inhibition rate.
(§1) As an example of one of the physiological activities of the peptide and N-acyl derivatives thereof obtained according to the present invention, anti-pepsin and anti-cathepsin D activities and also acute toxicity are given in Table 8. The activities (ID50) were assayed according to the method described above and The Journal of Antibiotics 25 689 (1972). The antiprotease activities of the peptide and N-acyl derivatives thereof are extremely high.

mice = assay: Acute toxicity in mice; assay type: in vivo
Procedure: as §1
(§2) Note: Acute toxicity was examined by administering the compounds to the
(§3) mice by abdominal injection
(§4) *This value was obtained by intravenous injection.

Solubility in water = assay type: physicochemical
Text: The solubilities in water of the N-acyl derivatives according to the present invention are shown in Table 10 compared with the known N-acyl peptides having physiological activity.

Cathepsin D = assay: Anti-cathepsin D activity (method of The Journal of Antibiotics 25 689 (1972)); assay type: biochemical
Procedure: as §1

Acute toxicity in mice = assay type: in vivo; details: mouse, in vivo, ip, abdominal injection
Procedure: as §1, §2, §3, §4

Stomach ulcers in rats = assay: Stress stomach ulcers in rats (method of Takagi et al.); assay type: in vivo
Procedure: Stomach ulcers in rats made by the method described in Takagi et al. in the Japanese Journal of Pharmacology, 18, 9-19, […], that is, placing male rats in a cage at 23° C. for 22 hours, are protected or therapetuically treated by the compounds. When 50 mg/kg of pepstatin and the compounds according to the invention were orally given 30 minutes before the stress, and the rats were sacrificed 48 hours afte the stress, the curative ratio of the ulcers was 60 - 75%. When the dose was 10 mg/kg, the inhibition percentage of the ulcers was 50 - 60%.

[2] = Solubility of the hydrolysis product in organic solvents; assay type: physicochemical
[3] = Concentration 2 mM, Control (No Addition) 100
[4] = casein, pH 2, 37° C, 30 minutes, read-out: ID50 Pepsin (converted)
[5] = Concentration 10 mM, Control (No Addition) 100

T1 sequence (P00791 60-385): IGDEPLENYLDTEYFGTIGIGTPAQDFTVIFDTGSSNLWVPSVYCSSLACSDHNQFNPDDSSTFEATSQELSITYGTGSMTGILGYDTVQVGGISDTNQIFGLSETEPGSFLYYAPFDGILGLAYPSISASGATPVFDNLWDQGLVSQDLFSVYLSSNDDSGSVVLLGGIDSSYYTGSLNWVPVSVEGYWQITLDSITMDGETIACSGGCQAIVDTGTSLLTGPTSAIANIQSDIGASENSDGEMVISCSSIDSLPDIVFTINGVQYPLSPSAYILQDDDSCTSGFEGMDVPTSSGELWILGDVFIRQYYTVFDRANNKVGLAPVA

For `O=C1CCC(=O)N1Br` [N-Bromosuccinimide], the “Inhibition of the enzyme” value ([1]; 2mM) was “Inhibition” and the Relative activity [1, 3] was 0.
In the case of `O=C(O)c1cc[c]([Hg][Cl])cc1` [p-Chloromercuribenzoate], the “Inhibition of the enzyme” value [1] is reported as “Inhibition” and the Relative activity [1] is reported as 2.
With `CC(C)C[C@H](NC(=O)[C@H](C)NC(=O)C[C@H](O)[C@H](CC(C)C)NC(=O)[C@@H](NC(=O)C(C)O)C(C)C)[C@@H](O)CC(=O)O` (some centres unmarked) [Lactoyl-Val-X-Ala-X, lactoyl-Val-X-Ala-X] the IC50 (pepsin (SIGMA, 2XCRY); [4]) was 0.0348 µM, the “Acute toxicity LD0” value (mice; abdominal injection) was no less than 6000 mg/kg and the “Acute toxicity LD0” value (mice; intravenous injection) was no less than 550 mg/kg. For the same molecule, the “Water solubility compared with other derivatives” value (Solubility in water) was “much more water soluble” and the Solubility in water (Solubility in water; 20° C) was ≥ 50,000 mcg/ml.
For `OCCS` [β-Mercaptoethanol], the “Inhibition of the enzyme” value ([1]; 2mM) was “Inhibition” and the Relative activity [1, 3] was 0.
With `CC(=O)[O-].CC(=O)[O-].[Pb+2]` [Lead Acetate] the Relative activity [1] was 43.
Work on `CCCCCC(=O)N[C@H](C(=O)N[C@H](C(=O)N[C@@H](CC(C)C)[C@@H](O)CC(=O)N[C@@H](C)C(=O)N[C@@H](CC(C)C)[C@@H](O)CC(=O)O)C(C)C)C(C)C` [Pepstatin B, n-caproyl-L-valyl-L-valyl-4-amino-3-hydroxy-6-methylheptanoyl-L-alanyl-4-a mino-3-hydroxy-6-methylheptanoic acid] yielded a Solubility in water (Solubility in water; 20° C) of 100 µg/mL (≈ 143 µM).
`[Cl][Co][Cl]` [Cobalt Chloride] showed a Relative activity [1, 3] of 134 and a Relative activity [1, 5] of 166.
In the case of `CC(C)C[C@H](NC(=O)[C@H](C)NC(=O)C[C@H](O)[C@H](CC(C)C)NC(=O)[C@@H](NC(=O)c1ccccc1)C(C)C)[C@@H](O)CC(=O)O` [Benzoyl-Val-X-Ala-X, N-benzoyl-Val-X-Ala-X], the “ID50 Cathepsin D” value (Cathepsin D) is reported as 0.05 mg/L (≈ 0.0824 µM) and the LD50 (Acute toxicity in mice) is reported as 1350 mg/kg.
`O=C(O)CN(CCN(CC(=O)O)CC(=O)O)CC(=O)O` [Ethylenediaminetetraacetic Acid] gave a Relative activity [1, 3] of 30.
With `CC(C)CC(=O)N[C@H](C(=O)N[C@H](C(=O)N[C@@H](CC(C)C)[C@@H](O)CC(=O)N[C@@H](C)C(=O)N[C@@H](CC(C)C)[C@@H](O)CC(=O)O)C(C)C)C(C)C` [pepstatin] the “curative ratio of the ulcers” value (Stomach ulcers in rats; 50 mg/kg orally 30 minutes before the stress, rats sacrificed 48 hours after the stress) was 60 - 75% and the “cure of ulcers” value (Stomach ulcers in rats; 50 - 200 mg/kg immediately after the stress and once daily for 4 days) was “rapid cure of ulcers was proven”.
`O=C(O)CI` [Monoiodoacetic Acid] showed a Relative activity [1] of 84.
`[Cl-].[Cl-].[Zn+2]` [Zinc Chloride] showed a Relative activity [1, 3] of 66 and a Relative activity [1, 5] of 44.
For `O[C@H](CS)[C@H](O)CS` (racemic) [Dithiothreitol], the “Inhibition of the enzyme” value ([1]; 2mM) was “Inhibition” and the Relative activity [1, 3] was 0.
With `CC(C)C[C@H](NC(=O)[C@H](C)NC(=O)C[C@H](O)[C@H](CC(C)C)NC(=O)[C@@H](NC(=O)COc1ccccc1)C(C)C)[C@@H](O)CC(=O)O` [Phenoxyacetyl-Val-X-Ala-X, N-phenoxyacetyl-Val-X-Ala-X] the IC50 (pepsin (SIGMA, 2XCRY)) was 0.0314 µM, the LD50 (Acute toxicity in mice) was 1500 mg/kg and the Solubility in water (Solubility in water; 20° C) was 20,000 mcg/ml.
With `CC(C)C[C@H](NC(=O)[C@H](C)NC(=O)C[C@H](O)[C@H](CC(C)C)NC(=O)[C@@H](N)C(C)C)[C@@H](O)CC(=O)O` [Val-X-Ala-X, L-valyl-4-amino-3-hydroxy-6-methylheptanoyl-L-alanyl-4-amino-3-hydroxy-6-m ethylheptanoic acid] the IC50 (pepsin (SIGMA, 2XCRY)) was 19.9 µM, the “Acute toxicity LD0” value (mice; abdominal injection) was no less than 5000 mg/kg and the “Solubility” value ([2]; ether, ethyl acetate, and butyl acetate) was “insoluble”. The “Solubility” value ([2]; methanol, ethanol, pyridine, and acetic acid) was “soluble” and the “Solubility” value ([2]; n-propanol, n-butanol, n-amyl alcohol and acetone) was “slightly soluble”.
For `[Cl][Hg][Cl]` [HgCl2], the “Inhibition of the enzyme” value ([1]; 2mM) was “Inhibition”.
`[Ca+2].[Cl-].[Cl-]` [Calcium Chloride] gave a Relative activity [1] of 110 and an increase in activity [1] of 29%.
For `CCCCCCCCCCCCCCCC(=O)N[C@H](C(=O)N[C@@H](CC(C)C)[C@@H](O)CC(=O)N[C@@H](C)C(=O)N[C@@H](CC(C)C)[C@@H](O)CC(=O)O)C(C)C` [Palmitoyl-Val-X-Ala-X, N-palmitoyl-Val-X-Ala-X], the IC50 (pepsin (SIGMA, 2XCRY); [4]) was 0.607 µM.
With `CC(C)CC(=O)N[C@H](C(=O)N[C@H](C(=O)N[C@@H](CC(C)C)[C@@H](O)CC(=O)N[C@@H](C)C(=O)N[C@@H](CC(C)C)[C@@H](O)CC(=O)O)C(C)C)C(C)C` [Pepstatin A] the Solubility in water (Solubility in water) was 200 µg/mL (≈ 292 µM).
With `CC(C)C[C@H](NC(=O)[C@H](C)NC(=O)C[C@H](O)[C@H](CC(C)C)NC(=O)[C@@H](NC(=O)C(C)Oc1ccccc1)C(C)C)[C@@H](O)CC(=O)O` (some centres unmarked) [Phenoxypropionyl-Val-X-Ala-X, N-2-phenoxypropionyl-Val-X-Ala-X] the IC50 (pepsin (SIGMA, 2XCRY); [4]) was 0.0307 µM, the LD50 (Acute toxicity in mice) was 2100 mg/kg and the Solubility in water (Solubility in water; 20° C) was 15,000 mcg/ml.
`CC(=O)[O-].CC(=O)[O-].[Hg+2]` [Mercuric Acetate] showed a Relative activity [1] of 0.
With `CC(=O)C(CC(C)C)NC(=O)[C@H](C)NC(=O)CC(O)C(CC(C)C)NC(=O)[C@@H](NC(=O)[C@@H](NC(=O)CC(C)C)C(C)C)C(C)C` (stereo partly drawn) [Pepstanone A, isovaleryl-Val-Val-X-Ala-X'] the Solubility in water (Solubility in water; 20° C) was 50 µg/mL (≈ 78.1 µM).
For `CC(C)C[C@H](NC(=O)[C@H](C)NC(=O)C[C@H](O)[C@H](CC(C)C)NC(=O)[C@@H](NC(=O)C(C)C)C(C)C)[C@@H](O)CC(=O)O` [Isobutyryl-Val-X-Ala-X, N-isobutyryl-Val-X-Ala-X], the IC50 (pepsin (SIGMA, 2XCRY); [4]) was 0.0367 µM.
`[N-]=[N+]=[N-].[Na+]` [NaN3] showed a Relative activity [1] of 100.
In the case of `c1cnc2c(c1)ccc1cccnc12` [o-Phenanthroline], the “Inhibition of the enzyme” value ([1]; 2mM) is reported as “Inhibition” and the Relative activity [1, 3] is reported as 0.
For `CC(C)CC(=O)N[C@H](C(=O)N[C@@H](CC(C)C)[C@@H](O)CC(=O)N[C@@H](C)C(=O)N[C@@H](CC(C)C)[C@@H](O)CC(=O)O)C(C)C` [Isovaleryl-Val-X-Ala-X, N-isovaleryl-Val-X-Ala-X], the IC50 (pepsin (SIGMA, 2XCRY); [4]) was 0.017 µM, the “Acute toxicity LD0” value (mice; abdominal injection) was no less than 3000 mg/kg and the Solubility in water (Solubility in water; 20° C) was 5,000 mcg/ml.
